{
  "source": "paper PMC8298857",
  "about": "“Vanillin Activates Human Bitter Taste Receptors TAS2R14, TAS2R20, and TAS2R39” (Frontiers in Nutrition, 2021)",
  "assay_in_all_cases": "FLIPR calcium imaging in transfected HEK293 PEAKrapid Gα[…]i/o44 cells, dose-response with mock control",
  "format_in_all_cases": "cell-based",
  "key": {"TAS2R20": {"target": "T1, TAS2R20 (Homo sapiens, UniProt P59543)", "T1 construct": "TAS2R cDNA cloned 3′ of the first 45 amino acids of the rat somatostatin receptor 3", "T1 sequence (P59543 1-309)": "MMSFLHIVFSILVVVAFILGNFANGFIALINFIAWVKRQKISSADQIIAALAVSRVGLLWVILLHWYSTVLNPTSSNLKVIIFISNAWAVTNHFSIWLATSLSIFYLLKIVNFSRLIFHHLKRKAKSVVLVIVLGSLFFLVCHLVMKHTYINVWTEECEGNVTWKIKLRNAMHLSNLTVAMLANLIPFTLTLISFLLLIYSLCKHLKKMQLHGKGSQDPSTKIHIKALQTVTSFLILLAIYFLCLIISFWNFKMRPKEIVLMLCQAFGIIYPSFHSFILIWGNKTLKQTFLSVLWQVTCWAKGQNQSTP"}, "TAS2R39": {"target": "T2, TAS2R39 (Homo sapiens, UniProt P59534)", "T2 construct": "TAS2R cDNA cloned 3′ of the first 45 amino acids of the rat somatostatin receptor 3", "T2 sequence (P59534 1-338)": "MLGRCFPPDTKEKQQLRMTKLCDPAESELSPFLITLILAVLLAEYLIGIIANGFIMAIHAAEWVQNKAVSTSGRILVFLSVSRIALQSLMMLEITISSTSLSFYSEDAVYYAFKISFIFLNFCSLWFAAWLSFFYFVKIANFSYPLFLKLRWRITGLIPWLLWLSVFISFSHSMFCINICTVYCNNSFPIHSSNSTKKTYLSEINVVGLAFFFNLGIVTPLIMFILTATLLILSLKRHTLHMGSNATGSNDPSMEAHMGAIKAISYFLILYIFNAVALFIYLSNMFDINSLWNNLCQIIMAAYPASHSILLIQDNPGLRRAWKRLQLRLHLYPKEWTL"}, "TAS2R14": {"target": "T3, TAS2R14 (Homo sapiens, UniProt Q9NYV8)", "T3 construct": "TAS2R cDNA cloned 3′ of the first 45 amino acids of the rat somatostatin receptor 3", "T3 sequence (Q9NYV8 1-317)": "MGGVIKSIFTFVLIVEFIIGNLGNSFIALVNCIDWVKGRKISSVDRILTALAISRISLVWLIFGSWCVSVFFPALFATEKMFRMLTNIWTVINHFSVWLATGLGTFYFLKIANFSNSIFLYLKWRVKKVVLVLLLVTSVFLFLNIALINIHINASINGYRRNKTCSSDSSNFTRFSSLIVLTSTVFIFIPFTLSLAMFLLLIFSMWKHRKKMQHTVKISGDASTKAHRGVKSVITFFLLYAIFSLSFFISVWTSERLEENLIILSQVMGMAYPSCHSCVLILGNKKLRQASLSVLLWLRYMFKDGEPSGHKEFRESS"}},
  "data": [
    {"smiles": "COc1cc(C=O)ccc1O", "note": "[vanillin, 4-hydroxy-3-methoxybenzaldehyde]", "values": [
      {"measurement": "EC50", "setting": "TAS2R20", "result": "530 ± 90", "unit": "µM"},
      {"measurement": "EC50", "setting": "TAS2R39", "result": "870 ± 190", "unit": "µM"},
      {"measurement": "EC50", "setting": "TAS2R14", "result": "570 ± 110", "unit": "µM"}
    ]}
  ]
}
